The record followed here is ChEMBL document CHEMBL3046784, “Exploring QSAR of antiamoebic agents of isolated natural products by MLR, ANN, and RTO” (Med Chem Res, 2012).

≈ marks a conversion by molar mass, not a printed value.

By IC50 is commonly meant the concentration needed to halve the response being measured.

The first test concerns Entamoeba histolytica. The test is described as follows: Antiamoebic activity against Entamoeba histolytica. It is filed as functional, organism-based.
Conditions: not given
The compound `COc1ccc2cc1Oc1ccc(cc1)C[C@H]1c3cc(c(OC)cc3CCN1C)Oc1c(OC)c(OC)cc3c1[C@H](C2)N(C)CC3` (stereo in doubt; 146) [FANCHININ] yielded a concentration for half-maximal inhibition (IC50) of 10.51 µg/mL (≈ 16.9 µM).

The same test, now with this note: Entamoeba histolytica; read-out: IC50.
In the case of `COc1c(O)cc2oc(-c3ccc(O)cc3)c(OC)c(=O)c2c1O` [3,6-DIMETHOXY KAEMPFEROL], the IC50 amounted to 105 µg/mL (≈ 319 µM). Regarding `O=c1cc(-c2ccccc2)oc2cc(O)cc(O)c12` [CHRYSIN], the IC50 is 81 µg/mL (≈ 319 µM). Same read-out and setting: the result for `COC(=O)c1cc(O)c(O)c(O)c1` [GALLIC ACID METHYL ESTER] reads 22.6 µg/mL (≈ 123 µM); that for `COC(=O)[C@@]12OC[C@]34[C@H]([C@@H](O)[C@@H]1O)[C@@]1(C)CC(=O)C(O)=C(C)[C@@H]1C[C@H]3OC(=O)[C@H](OC(=O)/C=C(\C)C(C)C)[C@@H]24` [BRUCEANTIN], 0.019 µg/mL (≈ 0.0346 µM); that for `COc1ccc2cc1Oc1ccc(cc1)C[C@H]1c3cc(c(OC)cc3CCN1C)Oc1c(O)c(OC)cc3c1[C@H](C2)N(C)CC3` [FANGCHINOLINE], 14.7 µg/mL (≈ 24.2 µM). Still for that read-out and setting: then `CC[C@H]1[C@@H]2C[C@H]3[C@@H]4N(C)c5ccccc5[C@]45C[C@@H]([C@@H]2[C@H]5O)N3[C@@H]1O` [AJMALINE], with > 100 µg/mL. Turning to `O=c1c(O[C@@H]2OC[C@@H](O)[C@H](O)[C@H]2O)c(-c2ccc(O)c(O)c2)oc2cc(O)cc(O)c12` [REYNOUTRIN], the IC50 turned out to be 109 µg/mL (≈ 251 µM). On the same count and under the same terms, the result for `CC(C)=CCC/C(C)=C/CC/C(C)=C/CC/C=C(\C)CC/C=C(\C)CCC=C(C)C` reads 270 µg/mL (≈ 658 µM); that for `COc1ccc2cc1Oc1ccc(cc1)CC1=NCCc3cc(OC)c4c(c31)Oc1cc3c(cc1O4)CCN(C)[C@H]3C2` [TRIGILLETIMINE], 23.3 µg/mL (≈ 41.5 µM); that for `O=C(/C=C/c1ccc(O)cc1)O[C@H]1[C@@H]2C=CO[C@@H](O[C@@H]3O[C@H](CO)[C@@H](O)[C@H](O)[C@H]3O)[C@@H]2[C@@]2(CO)O[C@@H]12` [SPECIOSIDE], 0.198 µg/mL (≈ 0.39 µM). Still for that read-out and setting: then `C=C[C@H]1CN2CC[C@H]1C[C@H]2[C@H](O)c1ccnc2ccc(OC)cc12` [QUININE], with 14.8 µg/mL (≈ 45.6 µM). Still for that read-out and setting: then `C/C=C1\CN2CC[C@]34c5ccccc5N5[C@@H]([C@H]6[C@@H]7N(C(C)=O)c8ccccc8[C@@]78CCN7C/C(=C\C)[C@@H]6C[C@H]78)OC[C@@H]([C@H]53)[C@H]1C[C@H]24` [STRYCHNOBILINE], with 21.5 µg/mL (≈ 35 µM).

As for `Oc1cc(O)c2c(c1)O[C@H](c1ccc(O)c(O)c1)[C@@H](O)C2` [CIANIDANOL], the half-inhibitory concentration (IC50) stood at 65.5 µg/mL (≈ 226 µM).

Turning to `C/C=C1\CN2CC[C@]34c5ccccc5N(C(C)=O)[C@H]3[C@@H](CO)[C@H]1C[C@H]24` [RETULINE], the IC50 is 21.9 µg/mL (≈ 64.7 µM). Same read-out and setting: the result for `C=C[C@H]1CN2CCc3c([nH]c4ccccc34)[C@@H]2C[C@@H]1C[C@H]1NCCc2c1[nH]c1cccc(OC)c21` [3ALPHA-17ALPHA-CINCHOPHYLLINE] reads 2.2 µg/mL (≈ 4.71 µM); that for `O=c1c(O)c(-c2ccc(O)c(O)c2)oc2cc(O)ccc12` [FISETIN], 189 µg/mL (≈ 660 µM). As for `CN[C@H]1CC[C@@]2(C)C(=CC[C@H]3[C@@H]4CC[C@@H]5[C@H](C)N(C)C[C@@]54CC[C@@H]32)C1` [ISOCONESSIMINE], the IC50 came to 20.9 µg/mL (≈ 61 µM).

Take `Oc1ccc([C@H]2Oc3c(c(O)cc4c3[C@H]3c5c(O)cc6c(c5O[C@@](c5ccc(O)cc5)(O4)[C@@H]3O)[C@H]3c4c(O)cc(O)cc4O[C@@](c4ccc(O)cc4)(O6)[C@H]3O)C[C@@H]2O)cc1` [GERANIN D]: the half-inhibitory concentration (IC50) was 28.6 µg/mL (≈ 35.1 µM). Still for that read-out and setting: the result for `CC[C@H]1CN2CCC3c4ccc(O)c([C@@H]5CCCN5C)c4NC3[C@@H]2C[C@@H]1C[C@H]1c2[nH]c3ccccc3c2CCN1C` (stereo not given in full) [ISOSTRYCHNOPENTAMINE] reads 10.4 µg/mL (≈ 18.8 µM); that for `C=C[C@H]1CN2CC[C@H]1C[C@H]2c1[nH]c2ccccc2c1CCO` [CINCHONAMINE], 14.8 µg/mL (≈ 49.9 µM); that for `COc1cc2c3cc1Oc1c(OC)c(OC)cc4c1[C@@H](Cc1ccc(O)c(c1)Oc1ccc(cc1)C[C@@H]3N(C)CC2)N(C)CC4` [BERBAMINE], 22.4 µg/mL (≈ 36.7 µM). The same measure, in the same setting: then `COc1cc2c3c(c1OC)Oc1ccc(cc1)C[C@H]1c4c(cc(OC)c5c4Oc4ccc(cc4O5)C[C@H]3N(C)CC2)CCN1C` [INSULARINE], with 6.88 µg/mL (≈ 11.3 µM). The same measure, in the same setting: the result for `COC(=O)C1=CO[C@@H](C)[C@@H]2CN3CCc4c([nH]c5ccc(OC)cc45)[C@@H]3C[C@H]12` [ARICINE] reads 3.6 µg/mL (≈ 9.41 µM); that for `COc1cc2c3cc1Oc1c(OC)c(OC)cc4c1[C@H](Cc1ccc(O)c(c1)-c1cc(ccc1OC)C[C@H]3N(C)CC2)N(C)CC4` [FUNIFERINE], 28.3 µg/mL (≈ 45.4 µM).

Take `C[C@H]1O[C@H](OC[C@H]2O[C@@H](Oc3cc(O)c4c(=O)c(O)c(-c5ccc(O)cc5)oc4c3)[C@H](O[C@@H]3O[C@H](CO)[C@@H](O)[C@H](O)[C@H]3O)[C@@H](O)[C@@H]2O)[C@@H](O)[C@@H](O)[C@@H]1O` [KAEMPFEROL-7-O-RHAMNOSYL-SOPHOROSIDE]: the IC50 is > 125 µg/mL. Same read-out and setting: the result for `CC[C@@H]1CN2CC[C@@]34c5ccccc5N5[C@@H]([C@@H]6[C@H]7C[C@@H]8N(CC[C@@]89c8cccc(O)c8N(C(C)=O)[C@@H]69)C[C@H]7CC)OC[C@H]([C@H]1C[C@H]23)[C@H]54` [12'-HYDROXYISOSTRYCHNOBILINE] reads 21.4 µg/mL (≈ 33.7 µM). The same measure, in the same setting: the result for `O=c1cc(-c2ccc(O)cc2)oc2cc(OC3O[C@H](CO)[C@@H](O)[C@H](O)[C@H]3O)cc(O)c12` (stereo not given in full) [APIGENIN-7-O-GLUCOSIDE] reads 59.8 µg/mL (≈ 138 µM); that for `CC[C@H]1CN2CCc3c([nH]c4ccccc34)[C@@H]2C[C@H]1C[C@H]1c2[nH]c3ccccc3c2CCN1C.O=C(O)C(=O)O`, 0.65 µg/mL; that for `COc1ccc2cc1-c1cc(ccc1O)C[C@@H]1c3c(cc(OC)c4c3Oc3cc5c(cc3O4)CCN(C)[C@H]5C2)CCN1C` [DINKLACORINE], 19.8 µg/mL (≈ 34.4 µM). On to `COc1c(OC)c(O)c2c(=O)cc(-c3ccc(O)cc3)oc2c1OC` [XANTHOMICROL], for which the half-inhibitory concentration (IC50) was 275 µg/mL (≈ 798 µM). On the same count and under the same terms, the result for `COc1ccc2cc1Oc1ccc(cc1)C[C@@H]1c3cc(c(OC)cc3CCN1C)Oc1c(OC)c(OC)cc3c1[C@@H](C2)N(C)CC3` [PHAEANTHINE] reads 10.8 µg/mL (≈ 17.4 µM); that for `CC[C@H]1CN2CCC3c4ccccc4NC3[C@@H]2C[C@@H]1C[C@H]1NCCc2c1[nH]c1ccccc21` (stereo not given in full) [OCHROLIFUANINE A], 1.3 µg/mL (≈ 2.95 µM); that for `C=C[C@H]1CN2CC[C@@]3(C(=O)Nc4cc(O)ccc43)[C@@H]2C[C@@H]1C[C@H]1c2[nH]c3ccccc3c2CCN1C` [STRYCHNOFOLINE], 25.1 µg/mL (≈ 51.9 µM). Still for that read-out and setting: then `C[C@@H]1N=C[C@]23CC[C@H]4[C@@H](CC=C5C[C@@H](N)CC[C@@]54C)[C@@H]2CC[C@H]13` [CONCKURCHINE], with 12 µg/mL (≈ 38.4 µM); and `COc1cc2c3c(c1O)-c1c(ccc(OC)c1OC)C[C@@H]3NCC2` [NORCORYDINE], with 50 µg/mL (≈ 153 µM). Still for that read-out and setting: then `COC(=O)C1=CO[C@H](O[C@@H]2O[C@H](CO)[C@@H](O)[C@H](O)[C@H]2O)[C@H]2[C@@H]1[C@@H]1O[C@@H]1[C@@]21C=C(C(O)c2ccc(O)cc2)C(=O)O1` (stereo not given in full) [EPOXYGAERTNEROSIDE], with 1.3 µg/mL (≈ 2.3 µM); and `COc1ccc2cc3[n+](cc2c1OC)CCc1cc2c(cc1-3)OCO2` [BERBERINE], with 1 µg/mL. As for `O=c1cc(-c2ccc(O)c(O)c2)oc2cc(O)cc(O)c12` [LUTEOLIN], the IC50 was 17.8 µg/mL (≈ 62.2 µM). On the same count and under the same terms, the result for `O=c1c(O)c(-c2ccc(O)cc2)oc2cc(O)cc(O)c12` [KAEMPFEROL] reads 7.93 µg/mL (≈ 27.7 µM). Still for that read-out and setting: the result for `CC[C@@H](C)C(=O)O[C@H]1C(=O)O[C@@H]2C[C@H]3C(C)=CC(=O)[C@@H](O)[C@]3(C)[C@H]3[C@@H](O)[C@H](O)[C@]4(C)OC[C@]32[C@@H]14` [SIMALIKALACTONE D] reads 0.047 µg/mL (≈ 0.0982 µM); that for `COC1=C[C@]23CCN(C)[C@H](Cc4cc(OC)c(OC)cc42)C3=CC1=O`, 50.1 µg/mL (≈ 147 µM); that for `C/C=C1/CN(C)CC[C@]23C(=O)C[C@@H]1[C@H]1CO[C@H](O)C(=O)N(c4ccccc42)[C@@H]13` [HOLSTIINE], 24.8 µg/mL (≈ 64.9 µM).

For the compound `COC(=O)[C@]12OC[C@]34[C@H]([C@@H](O)[C@@H]1O)[C@@]1(C)C=C(O[C@@H]5O[C@H](CO)[C@@H](O)[C@H](O)[C@H]5O)C(=O)[C@@H](C)[C@@H]1C[C@H]3OC(=O)[C@H](OC(C)=O)[C@@H]24` [YADANZIOSIDE F], the concentration for half-maximal inhibition (IC50) was determined as 2.33 µg/mL (≈ 3.63 µM). Same read-out and setting: then `CN[C@H]1CC[C@@]2(C)C(=CC[C@H]3[C@@H]4CC[C@@H]5[C@H](C)N=C[C@@]54CC[C@@H]32)C1` [CONESSIDINE], with 2.29 µg/mL (≈ 7.01 µM). Same read-out and setting: then `CC[C@@H]1CN2CCc3c([nH]c4ccccc34)[C@H]2C[C@@H]1CCO` [3-ISOCORYNANTHEOL], with 4.1 µg/mL (≈ 13.7 µM); and `COc1ccc2cc1Oc1ccc(cc1)C[C@H]1c3c(cc(OC)c(O)c3Oc3cc4c(cc3OC)CCN(C)[C@@H]4C2)CCN1C` [HOMOAROMOLINE], with 10.5 µg/mL (≈ 17.3 µM); and `C[C@@H]1NC[C@]23CC[C@H]4[C@@H](CC=C5C[C@@H](N(C)C)CC[C@@]54C)[C@@H]2CC[C@H]13` [CONESSIMINE], with 1.87 µg/mL (≈ 5.46 µM). Still for that read-out and setting: then `Oc1ccc([C@]23Oc4cc(O)cc(O)c4[C@H](c4c(cc(O)c5c4O[C@H](c4cc(O)c(O)c(O)c4)[C@@H](O)C5)O2)[C@H]3O)cc1` [GERANIN C], with 52 µg/mL (≈ 90.2 µM); and `COC(=O)[C@]12OC[C@]34[C@H]([C@@H](O)[C@@H]1O)[C@@]1(C)CC(=O)C(O)=C(C)[C@@H]1C[C@H]3OC(=O)[C@H](OC(=O)C=C(C)C)[C@@H]24` [BRUSATOL], with 0.062 µg/mL (≈ 0.119 µM). For the compound `CC1=CC(=O)[C@@H](O)[C@]2(C)[C@H]3[C@@H](O)[C@H](O)[C@]4(C)OC[C@@]35[C@@H](C[C@@H]12)OC(=O)[C@H](O)[C@]54O` [BRUCEINE D], the half-maximal inhibitory concentration (IC50) worked out at 0.386 µg/mL (≈ 0.941 µM). Regarding `C=C[C@H]1CN2CC[C@H]1C[C@@H]2[C@@H](O)c1ccnc2ccc(OC)cc12` [QUINIDINE], the IC50 was 16.6 µg/mL (≈ 51.2 µM). Still for that read-out and setting: the result for `CC[C@](C)(OC(C)=O)C(=O)O[C@H]1C(=O)O[C@@H]2C[C@H]3C(C)=CC(=O)[C@@H](O)[C@]3(C)[C@H]3[C@@]4(O)OC[C@]32[C@@H]1[C@@H](C)[C@H]4O` [2'-ACETOXY-GLAUCARUBINONE] reads 0.155 µg/mL (≈ 0.289 µM). On the same count and under the same terms, the result for `C=C[C@H]1CN2CCc3c([nH]c4ccccc34)[C@@H]2C[C@@H]1C[C@H]1c2[nH]c3ccccc3c2CCN1C` [USAMBARINE] reads 0.46 µg/mL (≈ 1.02 µM); that for `Cc1cc(O)c2c(c1)C(=O)c1cccc(O)c1C2=O` [CHRYSOPHANOL], 6.21 µg/mL (≈ 24.4 µM).
